Article PMC9701179, “New tricyclic systems as photosensitizers towards triple negative breast cancer cells” (Archives of Pharmacal Research, 2022)
“Also recorded” adds a separate entry of the source. Like-named read-outs stand apart in the source and are kept apart here.

Columns and labels:
MDA-MB-231 cells [1] = assay: MTT cytotoxicity/photocytotoxicity test on human TNBC MDA-MB-231 cells; format: cell-based; settings: Homo sapiens
Procedure: The irradiation device used for the irradiation of cell cultures during the assays was a black box equipped with two Philips UVA lamps with an irradiance of 17 mW cm^−2 and a centered emission peak at 365 nm; UVA irradiance was measured using a Waldmann Variocontrol radiometer, equipped with a UVA sensor. The box was maintained at room temperature inside with a fan and the multiwell plates were placed onto a water-refrigerated metal block.
Human triple negative (TNBC) breast MDA-MB-231 carcinoma cells were obtained from American Type Culture Collection (ATCC, Rockville, MD, USA). Human embryonic kidney HEK293 cells were obtained from the European Collection of Cell Cultures (ECACC, Salisbury, UK). Cell lines were maintained in the logarithmic phase at 37 °C in a 5% CO2 atmosphere using the following culture media containing 10% foetal calf serum (Euroclone, Milan, Italy), antibiotics (50 units/mL penicillin and 50 μg/mL streptomycin) and 2 mM l-glutamine: (i) RPMI-1640 medium (Euroclone, Milan, Italy) for MDA-MB-231 4 cells; (ii) DMEM (Euroclone, Milan, Italy) for HEK293 cells.
Cells (5–8 × 10^3 cells/well, dependent upon the growth characteristics of the cell line) were seeded in 96-well microplates in growth medium (100 μL). After 24 h, the medium was removed and replaced with a fresh one containing the compound to be studied at the appropriate concentration. Triplicate cultures were established for each treatment. For photocytotoxicity studies, after 1 h of incubation the medium was replaced with PBS and cells were treated with 2.0 J cm^−2 of UVA light. After irradiation, PBS was replaced with complete proliferation media. For pre-irradiation studies, instead, compounds in PBS were irradiated with 2.0 J cm^−2 of UVA light and subsequently cells were treated with pre-irradiated solutions. Following 24 h, each well was treated with 10 μL of a 5 mg/mL MTT saline solution, and following 5 h of incubation, 100 μL of a sodium dodecyl sulfate (SDS) solution in HCl 0.01 M were added. After an overnight incubation, cell growth inhibition was detected by measuring the absorbance of each well at 570 nm using a Bio-Rad 680 microplate reader. Mean absorbance for each drug dose was expressed as a percentage of the control untreated well absorbance and plotted against drug concentration. IC50 values, the drug concentrations that reduce the mean absorbance at 570 nm to 50% of those in the untreated control wells, were calculated by the four-parameter logistic (4-PL) model. Evaluation was based on means from at least four independent experiments.
The new synthetized pyrrolo[1,2-h][1,7]naphthyridinones 7 and pyrido[2,3-c]pyrrolo[1,2-a]azepinones 8 were screened for their cytotoxicity (in the dark) and photocitotoxicity (upon UVA light irradiation at 2.0 J/cm^2) profile on human TNBC cells, MDA-MB-231. The cytotoxicity/photocytotoxicity parameters, expressed in terms of IC50 values obtained by MTT test after 24 h of drug-exposure, are listed in Table 2.

MDA-MB-231 cells [2] = assay: Cell death induction (Hoechst / PI staining, confocal microscopy); format: cell-based, human; settings: MDA-MB-231, IC50 doses, 24 h
Procedure: MDA-MB-231 cells were seeded into 8-well tissue-culture slides (BD Falcon, Bedford, MA, USA) at 5 × 10^4 cells/well (0.8 cm^2). After 24 h, the cells were washed twice with PBS and, following 24 h of treatment with IC50 doses of the tested compound, cells were stained for 5 min with 10 µg/mL of Hoechst 33258 (20-(4-hydroxyphenyl)-5-(4-methyl-1-piperazinyl)-2,50-bi-1H-benzimidazole trihydrochloride hydrate, Sigma-Aldrich, St.Louis, MI, USA) or propidium iodide (PI, Sigma-Aldrich, St.Louis, MI, USA) in PBS. Samples were examined at × 5 and × 40 magnification in a Zeiss LSM 800 confocal microscope using the Zeiss ZEN 2.3 software system.
Fig. 5 Effects on mitochondrial membrane potential (A) and cell death induction (B) in human breast MDA-MB-231 cancer cells. A Cells were treated with 7h and 8e and stained with TMRM (10 nM). Fluorescence was estimated at 490 nm (excitation) and 590 nm (emission). Data are the means of five independent experiments. Error bars indicate S.D. * P < 0.05. B Cells were treated with concentrations of 7h and 8e equal to IC50 for 24 h and stained with the fluorescent dyes Hoechst 33342 and PI
Loss of mitochondrial transmembrane potential is a crucial step in the activation of intrinsic apoptotic cell death. […] MDA-MB-231 cells were treated with IC50 doses of tested compounds and apoptotic cell death induction was confirmed through a Hoechst 33342 staining assay.

MDA-MB-231 cells [3] = assay: Intracellular ROS production (CM-H2DCFDA) under UVA; format: cell-based, human; settings: MDA-MB-231, 25 µM, 90 min, UVA 2.0 J/cm^2; antimycin 3 µM positive control
Procedure: The production of ROS was measured in MDA-MB-231 cells (10^4 per well) grown for 24 h in a 96-well plate in RPMI medium without phenol red (Merk, Germany). Cells were then washed with PBS and loaded with 10 μM 5-(and-6)-chloromethyl-2′,7′-dichlorodihydrofluorescein diacetate acetyl ester (CM–H2DCFDA) (Molecular Probes-Invitrogen, Eugene, OR) for 45 min, in the dark. Afterwards, cells were washed with PBS and incubated with tested compounds (25 µM) for 90 min and after that exposed to UVA light (2.0 J/cm^2). Fluorescence increase was estimated utilizing the wavelengths of 485 nm (excitation) and 527 nm (emission) in a VICTOR X3 (PerkinElmer, USA) plate reader. Antimycin (3 μM, Merk), a potent inhibitor of Complex III in the electron transport chain, was used as positive control.
ROS production under light (UVA, 2.0 J/cm^2) was evaluated in MDA-MB-231 cell samples treated with increasing concentrations of tested compounds or antimycin, a potent inhibitor of Complex III of mitochondria electron chain, used as a positive control under the same experimental conditions (Fig. 4).
Fig. 4 Cellular ROS production (A) and total thiol redox state (B). A Effect of UVA activated tested compounds (25 µM) or antimycin (3 µM) on hydrogen peroxide formation in MDA-MB-231 cancer cells. B Sulfhydryl content in MDA-MB-231 cancer cells incubated for 24 h with UVA activated tested compounds. The sulfhydryl group amount was determined by the DTNB assay. Error bars indicate S.D

[4] = MDA-MB-231, in the dark, 1 h pre-treatment, recovered for total 24 h, read-out: Dark IC50 (µM) ± S.D
[5] = light or radiation study, MDA-MB-231, 1 h pre-treatment, UVA 2.0 J/cm^2, recovered for total 24 h, read-out: UVA (2.0 J/cm^2) IC50 (µM) ± S.D

Row | Structure (SMILES) | IC50 (MDA-MB-231 cells [1]; [4]) | IC50 (MDA-MB-231 cells [1]; [5]) | Apoptotic cell death induction (Hoechst 33342 staining) (MDA-MB-231 cells [2]) | Necrosis induction (PI staining) (MDA-MB-231 cells [2]) | Cellular ROS production (hydrogen peroxide formation) (MDA-MB-231 cells [3])
1 | CCOC(=O)c1ccc2n1CCc1cc(S(=O)(=O)c3ccccc3)c(OC)nc1-2 [Compound 7h, Ethyl 3-(benzenesulfonyl)-2-methoxy-5,6-dihydropyrrolo[1,2-h][1,7]naphthyridine-8-carboxylate] | > 50 µM | 4.4 ± 0.5 µM | positive to Hoechst 33342 staining | poor stained with PI | highest increase in cellular ROS production; also recorded: hydrogen peroxide content comparable to that induced by antimycin
2 | CCOC(=O)c1ccc2n1CCCc1cc(S(=O)(=O)c3ccccc3)c(OC)nc1-2 [Compound 8e, Ethyl 3-(benzenesulfonyl)-2-methoxy-6,7-dihydro-5H-pyrido[2,3-c]pyrrolo[1,2-a]azepine-9-carboxylate] | > 50 µM | 15.3 ± 1.7 µM | positive to Hoechst 33342 staining | poor stained with PI | highest increase in cellular ROS production
